Reference: patent US11278684B2, “Device and method of delivering particles in the upper respiratory tract” (SERVICES MEDICAUX ARNOLD ET JOAN ZIDULKA INC., priority 2016, dated 2022)

Experiment: two rounds of testing on a patient with ciclesonide administered by the oral inhalation / nasal exhalation method
Format: in vivo
Conditions: one patient; two sprays of 200 micrograms aerosolized ciclesonide, four to six oral inhalations each followed by nasal exhalation, morning and evening for two weeks; FIG. 3 device
Description: The Applicant has performed two rounds of testing on a patient suffering from post-nasal drip and upper laryngeal syndrome with an interval of two weeks between the rounds, each round consisting in administering a therapeutically effective dose of ciclesonide using the method of the present invention. […] In some embodiments, the therapeutically effective dose of ciclesonide for the treatment of upper airway cough syndrome is from 25 to 800 micrograms. Use of ciclesonide for the treatment of upper airway cough syndrome provides the advantage of avoiding fungal infections typically associated with administration of corticosteroid in the posterior nasal region, pharynx and the larynx.
In conducting the rounds of testing, the Applicant used the embodiment of the oral delivery device of the present invention shown in FIG. 3. […] It should be noted that in some embodiments, the effective volume is greater or smaller than 375 milliliters. In operation, the patient released two sprays of aerosolized ciclesonide into the oral delivery device, each one of the sprays containing 200 micrograms of ciclesonide, and performed four to six oral inhalations, each one of the inhalations being followed by a nasal exhalation into the ambient atmosphere. Each one of the inhalations drew ambient air into the oral delivery device to sweep in an additional amount of aerosolized ciclesonide. […]

Q: Which “patient-reported symptoms of upper airway cough syndrome following each round” value does the source give for `CC(C)C(=O)OCC(=O)[C@@]12O[C@H](C3CCCCC3)O[C@@H]1C[C@H]1[C@@H]3CCC4=CC(=O)C=C[C@]4(C)[C@H]3[C@@H](O)C[C@@]12C` [ciclesonide] here?
A: significant alleviation of the symptoms
